What all share (type): biochemical
One assay concerns the target SIK2 (Homo sapiens, UniProt Q9H0K1). Briefly: Enzymatic activity assay SIK2, RapidFire mass spectrometry (phosphorylation of CHK-peptide). As to conditions: RapidFire MS, inhibition of SIK2; read-out: SIK2 RF IC50. The procedure, abridged:
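Read-out is the summed phospho-species fraction of CHK-peptide by RapidFire mass spectrometry, normalized between DMSO and 1 μM YKL-05-099. The reaction used 0.5 nM SIK2, 100 μM ATP and 10 μM peptide solutions in HEPES pH 7.0/10 mM magnesium acetate for 45 min at ambient temperature.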

For another assay, the target named is SIK1 (Homo sapiens, UniProt P57059). Briefly: Enzymatic activity assay SIK1, RapidFire mass spectrometry (phosphorylation of CHK-peptide). To be noted: RapidFire MS, inhibition of SIK1; read-out: SIK1 RF IC50. The method, boiled down:
(§1)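 Human SIK1/2/3, 5/0.5/1.5 nM; 12.5 mM HEPES pH 7.0, 10 mM Mg acetate, 0.005% BSA. 30 min cpd pre-inc, + CHK-peptide (10 μM soln) + ATP (100 μM soln), 45 min RT. Formic acid stop; RF-MS phospho ratio; IC50.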

A further assay deals with SIK3 (Homo sapiens, UniProt Q9Y2K2). Briefly: Enzymatic activity assay SIK3, RapidFire mass spectrometry (phosphorylation of CHK-peptide). To be noted: RapidFire MS, inhibition of SIK3; read-out: SIK3 RF IC50. The procedure, abridged:
as §1

Sequence of SIK2 (Q9H0K1 whole entry): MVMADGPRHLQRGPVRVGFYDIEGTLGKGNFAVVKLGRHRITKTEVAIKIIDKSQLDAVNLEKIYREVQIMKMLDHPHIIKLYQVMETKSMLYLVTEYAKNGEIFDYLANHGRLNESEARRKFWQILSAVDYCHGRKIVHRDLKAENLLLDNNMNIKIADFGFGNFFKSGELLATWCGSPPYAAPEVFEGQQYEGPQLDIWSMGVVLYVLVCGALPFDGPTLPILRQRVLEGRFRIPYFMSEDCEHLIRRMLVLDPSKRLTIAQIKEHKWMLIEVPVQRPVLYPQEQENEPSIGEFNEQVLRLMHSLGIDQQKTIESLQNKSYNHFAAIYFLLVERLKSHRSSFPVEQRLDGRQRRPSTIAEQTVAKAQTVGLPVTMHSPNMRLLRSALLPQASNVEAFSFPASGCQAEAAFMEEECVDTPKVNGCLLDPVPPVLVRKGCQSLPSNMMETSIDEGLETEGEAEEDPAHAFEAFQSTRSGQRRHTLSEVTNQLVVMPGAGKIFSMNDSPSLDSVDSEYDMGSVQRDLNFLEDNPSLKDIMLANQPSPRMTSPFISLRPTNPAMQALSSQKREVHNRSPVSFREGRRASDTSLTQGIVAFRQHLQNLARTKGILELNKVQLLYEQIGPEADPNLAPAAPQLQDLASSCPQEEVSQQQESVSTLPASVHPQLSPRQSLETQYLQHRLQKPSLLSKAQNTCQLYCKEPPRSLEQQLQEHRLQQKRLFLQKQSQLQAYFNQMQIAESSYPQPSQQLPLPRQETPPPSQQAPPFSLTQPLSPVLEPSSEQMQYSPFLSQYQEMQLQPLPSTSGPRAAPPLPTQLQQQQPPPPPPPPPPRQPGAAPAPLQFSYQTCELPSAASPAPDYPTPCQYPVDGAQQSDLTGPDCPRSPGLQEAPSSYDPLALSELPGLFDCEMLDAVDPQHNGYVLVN
Sequence of SIK1 (P57059 whole entry): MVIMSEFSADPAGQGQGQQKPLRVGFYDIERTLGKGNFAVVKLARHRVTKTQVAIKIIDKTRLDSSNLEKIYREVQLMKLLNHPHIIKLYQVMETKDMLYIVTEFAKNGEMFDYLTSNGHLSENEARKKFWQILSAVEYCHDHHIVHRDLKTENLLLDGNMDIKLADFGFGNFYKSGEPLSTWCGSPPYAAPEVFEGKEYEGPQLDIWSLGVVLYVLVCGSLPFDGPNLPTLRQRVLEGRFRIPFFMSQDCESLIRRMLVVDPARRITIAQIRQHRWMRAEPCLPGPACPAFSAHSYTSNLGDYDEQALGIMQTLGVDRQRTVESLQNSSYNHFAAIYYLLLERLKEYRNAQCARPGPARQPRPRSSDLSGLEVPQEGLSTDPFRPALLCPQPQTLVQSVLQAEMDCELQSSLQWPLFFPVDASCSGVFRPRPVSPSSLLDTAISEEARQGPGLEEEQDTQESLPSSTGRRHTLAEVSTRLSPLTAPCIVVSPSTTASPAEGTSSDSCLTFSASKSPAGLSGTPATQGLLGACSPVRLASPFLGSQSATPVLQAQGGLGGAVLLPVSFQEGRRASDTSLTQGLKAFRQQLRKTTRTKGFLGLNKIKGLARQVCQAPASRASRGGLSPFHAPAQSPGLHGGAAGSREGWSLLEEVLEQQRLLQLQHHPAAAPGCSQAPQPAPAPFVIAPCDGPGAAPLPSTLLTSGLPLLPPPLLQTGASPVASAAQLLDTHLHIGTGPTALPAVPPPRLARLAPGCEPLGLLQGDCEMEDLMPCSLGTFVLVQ
Sequence of SIK3 (Q9Y2K2 whole entry): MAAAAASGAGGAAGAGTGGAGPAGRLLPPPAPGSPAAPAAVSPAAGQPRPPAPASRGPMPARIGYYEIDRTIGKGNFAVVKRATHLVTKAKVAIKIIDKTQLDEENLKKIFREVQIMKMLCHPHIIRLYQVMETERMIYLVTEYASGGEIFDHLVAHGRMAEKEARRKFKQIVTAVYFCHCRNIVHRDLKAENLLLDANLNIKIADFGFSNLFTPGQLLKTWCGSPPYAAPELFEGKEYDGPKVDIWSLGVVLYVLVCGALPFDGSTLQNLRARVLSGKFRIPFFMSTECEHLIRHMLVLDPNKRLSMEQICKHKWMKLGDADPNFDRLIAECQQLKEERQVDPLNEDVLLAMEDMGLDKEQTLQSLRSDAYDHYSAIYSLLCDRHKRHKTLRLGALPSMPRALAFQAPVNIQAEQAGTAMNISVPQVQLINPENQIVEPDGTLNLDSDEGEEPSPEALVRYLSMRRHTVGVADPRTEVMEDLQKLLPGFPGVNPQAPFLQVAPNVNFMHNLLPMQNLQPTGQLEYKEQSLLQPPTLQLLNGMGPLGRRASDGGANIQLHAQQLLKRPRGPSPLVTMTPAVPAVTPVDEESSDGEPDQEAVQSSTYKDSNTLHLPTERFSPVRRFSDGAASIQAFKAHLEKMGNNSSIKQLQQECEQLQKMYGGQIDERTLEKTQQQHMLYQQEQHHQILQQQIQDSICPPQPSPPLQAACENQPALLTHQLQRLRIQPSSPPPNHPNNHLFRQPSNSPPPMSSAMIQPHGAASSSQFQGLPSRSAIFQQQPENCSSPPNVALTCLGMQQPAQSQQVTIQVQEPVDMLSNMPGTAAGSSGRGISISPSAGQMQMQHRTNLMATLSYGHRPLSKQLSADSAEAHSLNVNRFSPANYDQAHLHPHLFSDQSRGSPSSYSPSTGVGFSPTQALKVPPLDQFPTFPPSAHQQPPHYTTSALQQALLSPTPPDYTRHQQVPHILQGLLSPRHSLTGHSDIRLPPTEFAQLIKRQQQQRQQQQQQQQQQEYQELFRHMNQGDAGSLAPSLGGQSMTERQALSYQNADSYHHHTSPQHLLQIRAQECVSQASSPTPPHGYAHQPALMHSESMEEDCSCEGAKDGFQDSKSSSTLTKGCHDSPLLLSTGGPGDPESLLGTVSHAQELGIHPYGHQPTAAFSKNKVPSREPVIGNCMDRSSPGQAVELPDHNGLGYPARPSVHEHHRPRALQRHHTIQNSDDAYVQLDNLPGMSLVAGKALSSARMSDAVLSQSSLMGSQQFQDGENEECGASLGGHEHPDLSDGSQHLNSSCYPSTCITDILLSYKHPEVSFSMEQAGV

By IC50 is commonly meant the concentration at which inhibition is half-maximal. With `Cc1ccc(Nc2cc3c(cc2F)ncn3-c2ccc(C(C)O)c(-n3nc(Cl)cc3C)n2)nn1` (stereo not drawn) [Example 354, 1-[2-(3-chloro-5-methyl-pyrazol-1-yl)-6-[5-fluoro-6-[(6-methylpyridazin-3-yl)amino]benzimidazol-1-yl]-3-pyridyl]ethanol], the IC50 at SIK2 is 78.6 nM; at SIK1, 225 nM; at SIK3 it was 75.9 nM.

Consider `Cc1ccc(Nc2cc3ncn(-c4ccc(C(C)O)c(-n5nc(Cl)cc5C)n4)c3cc2F)nn1` (stereo not drawn) [Example 355, 1-[2-(3-chloro-5-methyl-pyrazol-1-yl)-6-[6-fluoro-5-[(6-methylpyridazin-3-yl)amino]benzimidazol-1-yl]-3-pyridyl]ethanol], for which the IC50 on SIK2 stood at 5.3 nM; at SIK1 it was 1050 nM; at SIK3, 3.6 nM.

Regarding `Cc1ccc(Nc2cc3ncn(-c4ccc(C(C)O)c(-c5cn(CC6CC6)nc5C)n4)c3cc2F)nn1` (stereo not drawn) [Example 356, 1-[2-[1-(cyclopropylmethyl)-3-methyl-pyrazol-4-yl]-6-[6-fluoro-5-[(6-methylpyridazin-3-yl)amino]benzimidazol-1-yl]-3-pyridyl]ethanol], the IC50 on SIK2 is 0.9 nM; on SIK1, 245 nM; on SIK3 it was 1.7 nM.

For the compound `Cc1ccc(Nc2cc3ncn(-c4ccc(C(C)O)c(-n5nc(OC(F)F)cc5C)n4)c3cc2OC2COC2)nn1` (stereo not drawn) [Example 357, 1-[2-[3-(difluoromethoxy)-5-methyl-pyrazol-1-yl]-6-[5-[(6-methylpyridazin-3-yl)amino]-6-(oxetan-3-yloxy)benzimidazol-1-yl]-3-pyridyl]ethanol], the IC50 on SIK2 turned out to be 1 nM; at SIK1, 19 nM; on SIK3, 1.7 nM.

With `Cc1nn(CC(F)(F)F)cc1-c1nc(-n2cnc3cc(NC(=O)CN4CCCCC4)ccc32)ccc1C(C)O` (stereo not drawn) [Example 358, N-[1-[5-(1-hydroxyethyl)-6-[3-methyl-1-(2,2,2-trifluoroethyl)pyrazol-4-yl]-2-pyridyl]benzimidazol-5-yl]-2-(1-piperidyl)acetamide], the IC50 was determined as 2.5 nM on SIK2, 51 nM on SIK1 and 8.4 nM at SIK3.

On to `Cc1ccc(Nc2ccc3c(c2)ncn3-c2ccc(C(C)O)c(N3CC(C#N)C4(CCC4)C3)n2)nn1` (stereo not drawn) [Example 359, 6-[3-(1-hydroxyethyl)-6-[5-[(6-methylpyridazin-3-yl)amino]benzimidazol-1-yl]-2-pyridyl]-6-azaspiro[3.4]octane-8-carbonitrile], for which the IC50 turned out to be 25.3 nM on SIK2, 1170 nM at SIK1 and 4.6 nM on SIK3.

Turning to `Cc1ccc(Nc2ccc3c(c2)ncn3-c2ccc(C(C)O)c(N3CCOC(C#N)C3)n2)nn1` (stereo not drawn) [Example 360, 4-[3-(1-hydroxyethyl)-6-[5-[(6-methylpyridazin-3-yl)amino]benzimidazol-1-yl]-2-pyridyl]morpholine-2-carbonitrile], the IC50 at SIK2 is 42.3 nM; on SIK1 it was 2320 nM; at SIK3, 7.9 nM.

Regarding `Cc1ccc(Nc2cc3c(cc2F)ncn3-c2ccc(C(C)O)c(-n3nc(C(F)F)cc3C)n2)c(F)c1F` (stereo not drawn) [Example 362, 1-[6-[6-(2,3-difluoro-4-methyl-anilino)-5-fluoro-benzimidazol-1-yl]-2-[3-(difluoromethyl)-5-methyl-pyrazol-1-yl]-3-pyridyl]ethanol], the IC50 on SIK2 was 8.7 nM; on SIK1, 12 nM; on SIK3, 26.7 nM.

On to `Cc1ccc(Nc2ccc3c(c2)ncn3-c2ccc(C(C)O)c(-c3nn(C(F)F)cc3C)n2)nn1` (stereo not drawn) [Example 363, 1-[2-[1-(difluoromethyl)-4-methyl-pyrazol-3-yl]-6-[5-[(6-methylpyridazin-3-yl)amino]benzimidazol-1-yl]-3-pyridyl]ethanol], for which the IC50 was determined as 1.2 nM on SIK2, 152 nM on SIK1 and 1 nM at SIK3.

For the compound `Cc1cc(C(F)F)nn1-c1nc(-n2cnc3cc(F)c(Nc4ccc(F)c(F)c4F)cc32)ccc1C(C)O` (stereo not drawn) [Example 364, 1-[2-[3-(difluoromethyl)-5-methyl-pyrazol-1-yl]-6-[5-fluoro-6-(2,3,4-trifluoroanilino)benzimidazol-1-yl]-3-pyridyl]ethanol], the IC50 was found to be 2.9 nM on SIK2, 8 nM on SIK1 and 11.7 nM on SIK3.

`Cc1cc(C#N)nn1-c1nc(-n2cnc3ccc(-c4ccc5c(n4)C(=O)N(C)C5)cc32)ccc1C(C)O` (stereo not drawn) [Example 365, 1-[3-(1-hydroxyethyl)-6-[6-(6-methyl-7-oxo-5H-pyrrolo[3,4-b]pyridin-2-yl)benzimidazol-1-yl]-2-pyridyl]-5-methyl-pyrazole-3-carbonitrile]: the IC50 is 44.6 nM at SIK2, 20 nM at SIK1 and 446 nM at SIK3.

Take `Cc1cc(C#N)nn1-c1nc(-n2cnc3cc(-c4ccc5c(n4)C(=O)N(C)C5)ccc32)ccc1C(C)O` (stereo not drawn) [Example 366, 1-[3-(1-hydroxyethyl)-6-[5-(6-methyl-7-oxo-5H-pyrrolo[3,4-b]pyridin-2-yl)benzimidazol-1-yl]-2-pyridyl]-5-methyl-pyrazole-3-carbonitrile]: the results for the IC50 on SIK2, on SIK1 and on SIK3 were 58.2 nM, 133 nM and 23.3 nM, respectively.

Turning to `Cc1cc(OC(F)F)nn1-c1nc(-n2cnc3cc(Nc4ccc(C(F)F)nn4)ccc32)ccc1C(C)O` (stereo not drawn) [Example 367, 1-[2-[3-(difluoromethoxy)-5-methylpyrazol-1-yl]-6-[5-[[6-(difluoromethyl)pyridazin-3-yl]amino]benzimidazol-1-yl]pyridin-3-yl]ethanol], the values for the IC50 on SIK2, at SIK1 and at SIK3 were 1.5 nM, 88 nM and 0.8 nM, respectively.

On to `CCc1cc(C(F)F)nn1-c1nc(-n2cnc3ccc(Nc4ccc(C)nn4)cc32)ccc1C(C)O` (stereo not drawn) [Example 368, 1-[2-[3-(difluoromethyl)-5-ethyl-pyrazol-1-yl]-6-[6-[(6-methylpyridazin-3-yl)amino]benzimidazol-1-yl]-3-pyridyl]ethanol], for which the IC50 came to 77.1 nM at SIK2, 106 nM on SIK1 and 1100 nM at SIK3.

With `Cc1ccc(Nc2ccc3c(c2)ncn3-c2ccc(C(C)O)c(-n3nc(C(F)F)c(C)c3C)n2)nn1` (stereo not drawn) [Example 369, 1-[2-[3-(difluoromethyl)-4,5-dimethyl-pyrazol-1-yl]-6-[5-[(6-methylpyridazin-3-yl)amino]benzimidazol-1-yl]-3-pyridyl]ethanol], the IC50 on SIK2 amounted to 8.2 nM; at SIK1, 1320 nM; on SIK3 it was 4.1 nM.

Consider `CCc1cc(C(F)F)nn1-c1nc(-n2cnc3cc(Nc4ccc(C)nn4)ccc32)ccc1C(C)O` (stereo not drawn) [Example 370, 1-[2-[3-(difluoromethyl)-5-ethyl-pyrazol-1-yl]-6-[5-[(6-methylpyridazin-3-yl)amino]benzimidazol-1-yl]-3-pyridyl]ethanol], for which the 50% inhibitory concentration (IC50) at SIK2 stood at 7.1 nM; at SIK1, 496 nM; at SIK3, 2 nM.

For the compound `Cc1cc(C(F)F)nn1-c1nc(-n2cnc3cc(F)c(Nc4ccc(Cl)nn4)cc32)ccc1C(C)O` (stereo not drawn) [Example 371, 1-[6-[6-[(6-chloropyridazin-3-yl)amino]-5-fluoro-benzimidazol-1-yl]-2-[3-(difluoromethyl)-5-methyl-pyrazol-1-yl]-3-pyridyl]ethanol], the IC50 was 84.7 nM at SIK2, 145 nM on SIK1 and 433 nM on SIK3.
